Legend:
Male C57 mice = test: Oral glucose tolerance test (OGTT), overnight fasted; assay type: in vivo; conditions: for % change in glucose levels Vs Control: treated at −30 min, oral glucose load 3 g/kg at 0 min; for % change in glucose levels Vs Control, Mean: Mean over the time points, oral glucose load 3 g/kg
Protocol: Effect of Glucokinase Activators (GKAs) of the Present Invention on Glucose Reduction Determined by Oral Glucose Tolerence Test (OGTT):
Male C57 mice, aged 8-10 weeks were fasted overnight and subjected to the treatment of selected GK activator at time denoted as −30 min. At time 0 min, mice were given oral glucose load of 3 g/kg, and the glucose excursion was observed upto 120 min. The percentage change against the change in glucose levels of control are mentioned in the table 2.

glucokinase (GK) enzyme = target: T1, glucokinase (GK) enzyme (Homo sapiens, UniProt P35557); test: In-vitro glucokinase (GK) activation assay (coupled with glucose-6-phosphate dehydrogenase, absorbance at 340); assay type: biochemical; conditions: glucose 2.5 mM; for activity at 0.1 µM / activity at 1 µM / activity at 5 µM / activity at 10 µM: read-out: % of GK activity wrt DMSO; for EC50: GK enzyme 0.2 units, ATP 1 mM
T1 sequence (P35557 1-465): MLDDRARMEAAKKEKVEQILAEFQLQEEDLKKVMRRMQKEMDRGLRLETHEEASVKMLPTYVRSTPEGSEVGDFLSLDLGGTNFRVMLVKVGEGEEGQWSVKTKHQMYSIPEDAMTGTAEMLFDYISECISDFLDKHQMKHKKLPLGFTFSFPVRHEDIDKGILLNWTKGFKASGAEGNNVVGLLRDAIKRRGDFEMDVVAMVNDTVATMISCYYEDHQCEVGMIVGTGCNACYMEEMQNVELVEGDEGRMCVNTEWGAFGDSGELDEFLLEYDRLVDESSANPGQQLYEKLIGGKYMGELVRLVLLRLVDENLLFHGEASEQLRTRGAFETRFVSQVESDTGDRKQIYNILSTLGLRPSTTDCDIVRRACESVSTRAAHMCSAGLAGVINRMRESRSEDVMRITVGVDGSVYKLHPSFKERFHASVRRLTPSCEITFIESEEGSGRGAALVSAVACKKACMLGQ
Protocol: The compound of the invention was incubated with glucokinase (GK) enzyme (0.2 units) for 10 minutes in assay buffer at 26° C. After incubation, addition of glucose-6-phosphate dehydrogenase (2.5 units), ATP (1 mM) and glucose (2.5 mM). Absorbance is measured at 340 nm for 15 minutes with 10 second interval using UV transparent plate in kinetic mode on Spectramax-190 at 30° C.

| activity at 0.1 µM (glucokinase (GK) enzyme; 0.1 uM compound) [%] | activity at 1 µM (glucokinase (GK) enzyme; 1 uM compound) [%] | activity at 5 µM (glucokinase (GK) enzyme; 5 uM compound) [%] | activity at 10 µM (glucokinase (GK) enzyme; 10 uM compound) [%] | EC50 (glucokinase (GK) enzyme) [nM] | % of GK activity wrt DMSO (glucokinase (GK) enzyme; 0.1 uM compound) [%] | % of GK activity wrt DMSO (glucokinase (GK) enzyme; 1 uM compound) [%] | % of GK activity wrt DMSO (glucokinase (GK) enzyme; 5 uM compound) [%] | % of GK activity wrt DMSO (glucokinase (GK) enzyme; 10 uM compound) [%] | SMILES | % change in glucose levels Vs Control (Male C57 mice; 0 min Vs −30 min) [%] | % change in glucose levels Vs Control (Male C57 mice; 30 min Vs −30 min) [%] | % change in glucose levels Vs Control (Male C57 mice; 60 min Vs −30 min) [%] | % change in glucose levels Vs Control (Male C57 mice; 120 min Vs −30 min) [%] | % change in glucose levels Vs Control, Mean (Male C57 mice) [%] |
| --- | --- | --- | --- | --- | --- | --- | --- | --- | --- | --- | --- | --- | --- | --- |
| 205 | 227 | 233 | 236 | 40 |  |  |  |  | Cc1nnc(-c2ccc(Oc3cc(OC4CCN(C)C4=O)cc(C(=O)Nc4ncc(C)s4)c3)cc2)o1 (stereo not drawn) [Example 2, 3-(4-(5-Methyl-1,3,4-oxadiazol-2-yl)phenoxy)-5-(1-methyl-2-oxopyrrolidin-3-yloxy)-N-(5-methylthiazol-2-yl)benzamide] | −34.5 ± 3.2 | −13.5 ± 8.8 | −49.6 ± 11.2 | −53.2 ± 3.1 | −37.7 |
| 112 | 141 | 230 | 261 | 356 |  |  |  |  | Cc1nnc(-c2ccc(Oc3cc(O[C@@H]4CCN(C)C4=O)cc(C(=O)Nc4nccs4)c3)cc2)o1 [Example 77, (R)-3-(4-(5-methyl-1,3,4-oxadiazol-2-yl)phenoxy)-5-((1-methyl-2-oxopyrrolidin-3-yl)oxy)-N-(thiazol-2-yl)benzamide] | −4.8 ± 7.5 | −15.1 ± 6.6 | −13.9 ± 7.3 | −22.0 ± 3.3 | −11.2 |
| 186 | 284 | 312 | 316 | 196 |  |  |  |  | CCOC(=O)Cc1csc(NC(=O)c2cc(Oc3ccc(-c4nnc(C)o4)cc3)cc(OC3CCN(C)C3=O)c2)n1 (stereo not drawn) [Example 3] | −18.8 ± 5.8 | −4.1 ± 6.0 | −3.9 ± 4.3 | −15.8 ± 3.7 | −10.6 |
| 107 | 151 | 290 | 329 |  |  |  |  |  | Cc1nnc(-c2ccc(Oc3cc(OC4CCN(C)C4=O)cc(C(=O)Nc4nc(-c5ccccc5)cs4)c3)cc2)o1 (stereo not drawn) [Example 37, 3-(4-(5-Methyl-1,3,4-oxadiazol-2-yl)phenoxy)-5-((1-methyl-2-oxopyrrolidin-3-yl)oxy)-N-(4-phenylthiazol-2-yl)benzamide] | 11.9 ± 8.2 | −26.5 ± 12.8 | −43.5 ± 3.8 | −24.9 ± 5.3 | −17.0 |
|  |  |  |  |  | 116.7 | 170.1 | 249.2 | 255.3 | Cc1nnc(-c2ccc(Oc3cc(O[C@H]4CCN(C)C4=O)cc(C(=O)Nc4ncc(C#N)s4)c3)cc2)o1 [Example 69, (S)-(5-cyanothiazol-2-yl)-3-(4-(5-methyl-1,3,4-oxadiazol-2-yl)phenoxy)-5-((1-methyl-2-oxopyrrolidin-3-yl)oxy)benzamide] | −58.6 ± 5.6 | −91.2 ± 1.3 | −84.4 ± 0.9 | −72.9 ± 5.6 | −75.2 |

Reference: patent US8835469B2 (Cadila Healthcare Limited, priority 2009, dated 2014)
